This is an account of results in patent US12390426B1, “Use of adamantane compositions and methods of reducing fibrotic tissue” (Ventoux Biosciences, Inc., priority 2024, dated 2025).

Data set [1] has as its system Bleomycin-Induced Dermal Fibrosis. Put plainly: Bleomycin-induced dermal fibrosis animal model. Format: in vivo, C57Bl/6 Mice. The conditions noted are these: 15 mg/kg intraperitoneal once daily days 0-27; bleomycin 20 μg s.c. daily; stated in words only, figure values not given. From the text: Animal Model Designed to Determine Efficacy of Memantine for the Treatment of Bleomycin-Induced Dermal Fibrosis
Forty-two normal male C57Bl/6 Mice were obtained from Charles River Laboratories. Mice age at the start of the study were from 6-8 weeks old. Study subjects were allocated as follows: 1 group of 6 mice and 3 groups of 12 mice each. Animals were not replaced during the study.
(§1) Bleomycin from Henry Schein (Cat #: 8700001) was obtained as a lyophilized powder. Unformulated Bleomycin was stored at 4° C. Formulated Bleomycin was prepared by mixing the lyophilized Bleomycin powder with saline to obtain a 0.4 mg/ml solution. Unused unformulated Bleomycin was retained. The prepared Bleomycin solution was aliquoted into 50 μL, 0.4 mg/ml Bleomycin parts and stored at −80° C. Bleomycin was prepared once and daily aliquots were frozen. Frozen aliquots were thawed daily for administration. […] Bleomycin was administered once daily on days 0-27 at 20 μg per subcutaneous injection. Unused formulated Bleomycin was disposed.
Memantine HCl from Selleckchem (Cat #: S2043) was obtained. Unformulated Memantine HCl was stored at −20° C. […]
Animals were dosed with test articles, administered at least 60 minutes prior to Bleomycin or saline injections. All animals were weighed and evaluated daily. […]

A further data set has as its system Alzheimer's disease. The conditions noted are these: cited from earlier work.
In the next data set the test system is long term potentiation. The conditions noted are these: animal models; cited from earlier work.
Data set [2] in a line: Stability of the formulated dosing solutions. The conditions noted are these: 0.4 mg/ml in saline; room temperature. Format: physicochemical. The method, then: as §1
Memantine HCl from Selleckchem (Cat #: S2043) was obtained. Unformulated Memantine HCl was stored at −20° C. Memantine was formulated daily by the following procedure: dissolve memantine in a 50/50 mixture of Kolliphor® EL (Sigma, Cat #: C5135)/ethanol for a 4× concentration of 12 mg/ml. Once dissolved, 3 parts MilliQ water is added for a final concentration of 3 mg/ml for dosing (12.5% Kolliphor® EL, 12.5% ethanol, 75% water). Unused unformulated Memantine was disposed. Memantine was formulated daily and administered by intraperitoneal injection once daily on days 0-27 at 15 mg/kg; 0.1 mL/20 g (5 mL/kg). […] Unused formulated Memantine was disposed.

Counter-ions that a name gives are not always drawn.

As to `CC12CC3CC(C)(C1)CC(N)(C3)C2` [Memantine, Memantine HCl], the “efficacy at treating fibromatosis conditions” value in data set [1] was “Effective at Treating Fibromatosis Conditions”. The “cognitive, functional and global endpoints” value in the data set with Alzheimer's disease (three randomized placebo-controlled trials, Alzheimer's disease) is reported as “significant improvements”. In the data set with Alzheimer's disease (used in Germany for neurological syndromes and cognitive deficits since 1982), the tolerability entry is given as “good tolerability”. Moreover, in the data set on long term potentiation, the “duration of long term potentiation in vivo” value was “prolong the duration of long term potentiation in vivo”; the learning and memory entry is “improve learning and memory”.

For Bleomycin, in data set [2], the “stability of formulated Bleomycin” value is reported as “stable for a few hours at room temperature”.
